According to ChEMBL document CHEMBL5665440, “ASAP - In vitro liver microsomal stability” (2024):

Legend:
[1] = (§1) Human liver microsomal stability of compound in microsomal protein, PBS buffer pH 7.4, NADPH, glucose-6-phosphate and glucose-6-phosphate dehydrogenase media. Aliquotes were taken at 5 time points and after stopping the reaction, supernatants were analyzed using HPLC coupled with a tandem mass spectrometer. The elimination constant, half-life, and intrinsic clearance are determined as results using linear regression analysis.; format: ADME, microsomes, Microsome; conditions: for half-life / microsomal CLint: liver microsomes; for Remaining / Remaining (without cofactor): microsomes
[2] = as §1, with “Mouse” for “Human”; format: ADME, microsomes, Microsome; conditions: for half-life / microsomal CLint: liver microsomes; for Remaining / Remaining (without cofactor): microsomes
For Remaining (without cofactor) in this document: time not given here.
For Remaining in this document: time not given here.

| Compound | half-life [1] | microsomal CLint [1] | Remaining [1] | Remaining (without cofactor) [1] | half-life [2] | microsomal CLint [2] | Remaining [2] | Remaining (without cofactor) [2] |
| --- | --- | --- | --- | --- | --- | --- | --- | --- |
| O=C(NCCCF)[C@H](Nc1ccc2c(c1)CNC2)c1cc(Cl)cc(C2CC2)c1 | 1.75 h | 15.9 µL/min/mg | 77.399% | 95.756% | 1.6 h | 17.4 µL/min/mg | 76.547% | 97.886% |
| O=C(Nc1ccc2c(c1)CNC2)c1cccc2[nH]c(C(F)(F)F)cc12 | 1.97 h | 14.1 µL/min/mg | 78.018% | 74.757% | 2.19 h | 12.7 µL/min/mg | 75.758% | 108.523% |
| O=C(Nc1ccc2c(c1)CNC2)c1cc(F)cc2[nH]ncc12 | > 2.89 h | < 10 µL/min/mg | 86.703% | 98.509% | 0.154 h | 180 µL/min/mg | 5.066% | 103.462% |
| O=C(NCC(F)F)[C@H](Nc1ccc2c(c1)CNC2)c1cc(Cl)cc2ccoc12 | > 2.89 h | < 10 µL/min/mg | 100.816% | 103.719% | > 2.89 h | < 10 µL/min/mg | 93.727% | 105.352% |
| CCCCNC(=O)[C@H](Nc1ccc2c(c1)CNC2)c1cc(Cl)cc(C2CC2)c1 | 1.72 h | 16.2 µL/min/mg | 75.607% | 97.272% | 1.43 h | 19.5 µL/min/mg | 73.231% | 102.386% |
| N#Cc1cccc(-c2nc3c(C(=O)Nc4ccc5c(c4)CNC5)cc(F)cc3[nH]2)c1 | > 2.89 h | < 10 µL/min/mg | 89.52% | 98.721% | 1.27 h | 22 µL/min/mg | 68.981% | 99.493% |
| CNC(=O)c1cc(Cl)c(F)cc1NS(=O)(=O)c1ccc(Oc2ccccc2Cl)cc1 | 0.39 h | 71.3 µL/min/mg | 32.8% | 112.27% | 0.506 h | 45.6 µL/min/mg | 39.045% | 100.041% |
| Nc1ccncc1-c1cc(F)cc(C(=O)Nc2ccc3c(c2)CNC3)c1 | > 2.89 h | < 10 µL/min/mg | 84.663% | 102.026% | > 2.89 h | < 10 µL/min/mg | 87.356% | 106.991% |
| O=C(NCC(F)F)[C@H](Nc1cnc2c(c1)CNC2)c1cc(Cl)cc(C2CC2)c1 | > 2.89 h | < 10 µL/min/mg | 91.952% | 110.51% | > 2.89 h | < 10 µL/min/mg | 87.443% | 105.088% |
| CC(C)n1cc2c(C(=O)Nc3ccc4c(c3)CNC4)cc(Cl)cc2n1 | > 2.89 h | < 10 µL/min/mg | 96.618% | 96.957% | > 2.89 h | < 10 µL/min/mg | 89.02% | 93.513% |
| COCCNC(=O)[C@H](Nc1ccc2c(c1)CNC2)c1cc(Cl)cc(C2CC2)c1 | 1.42 h | 19.7 µL/min/mg | 68.563% | 103.817% | 2.38 h | 11.7 µL/min/mg | 84.686% | 107.462% |
| O=C(Nc1ccc2c(c1)CNC2)c1cc(Cl)cc2[nH]ncc12 | > 2.89 h | < 10 µL/min/mg | 87.652% | 96.46% | 0.115 h | 243 µL/min/mg | 1.932% | 102.129% |
| O=C(Nc1ccc2c(c1)CNC2)c1ccc2[nH]cc(C3CCNCC3)c2c1 | > 2.89 h | < 10 µL/min/mg | 86.755% | 110.939% | > 2.89 h | < 10 µL/min/mg | 86.057% | 94.216% |
| COc1cc(Cl)cc([C@H](Nc2ccc3c(c2)CNC3)C(=O)NCC(F)F)c1 | > 2.89 h | < 10 µL/min/mg | 91.954% | 107.924% | 2.16 h | 12.9 µL/min/mg | 81.928% | 96.342% |
| Cn1cc2c(C(=O)Nc3ccc4c(c3)CNC4)cc(F)cc2n1 | > 2.89 h | < 10 µL/min/mg | 100.772% | 105.44% | 1.53 h | 18.2 µL/min/mg | 76.341% | 103.175% |
